Measured values taken from patent publication US10787442B2, “Modulators of indoleamine 2,3-dioxygenase” (GLAXOSMITHKLINE INTELLECTUAL PROPERTY DEVELOPMENT LIMITED, priority 2016, dated 2020).

Test system: human peripheral blood mononuclear cells (PBMC)
Assay: PBMC cytotoxicity assay (CellTiter-Glo)
Type: cell-based
Conditions: cytotoxicity in stimulated PBMC, recorded as pCC50
Procedure: Compounds of the present invention were tested via high-throughput cellular assays utilizing detection of kynurenine via mass spectrometry and cytotoxicity as end-points. […] Compounds with IDO1 inhibitory properties decreased the amount of kynurenine produced by the cells via the tryptophan catabolic pathway. Cellular toxicity due to the effect of compound treatment was measured using CellTiter-Glo® reagent (CTG) (Promega Corporation, Madison, Wis.), which is based on luminescent detection of ATP, an indicator of metabolically active cells.
In preparation for the assays, test compounds were serially diluted 3-fold in DMSO from a typical top concentration of 1 mM or 5 mM and plated at 0.5 μL in 384-well, polystyrene, clear bottom, tissue culture treated plates with lids (Greiner Bio-One, Kremsmünster, Austria) to generate 11-point dose response curves. Low control wells (0% kynurenine or 100% cytotoxicity) contained either 0.5 μL of DMSO in the presence of unstimulated (−IFN-γ/−LPS) PBMCs for the mass spectrometry assay or 0.5 μL of DMSO in the absence of cells for the cytotoxicity assay, and high control wells (100% kynurenine or 0% cytotoxicity) contained 0.5 μL of DMSO in the presence of stimulated (+IFN-γ/+LPS) PBMCs for both the mass spectrometry and cytotoxicity assays.
Frozen stocks of PBMCs were washed and recovered in RPMI 1640 medium (Thermo Fisher Scientific, Inc., Waltham, Mass.) supplemented with 10% v/v heat-inactivated fetal bovine serum (FBS) (Thermo Fisher Scientific, Inc., Waltham, Mass.), and 1× penicillin-streptomycin antibiotic solution (Thermo Fisher Scientific, Inc., Waltham, Mass.). The cells were diluted to 1,000,000 cells/mL in the supplemented RPMI 1640 medium. 50 μL of either the cell suspension, for the mass spectrometry assay, or medium alone, for the cytotoxicity assay, were added to the low control wells, on the previously prepared 384-well compound plates, resulting in 50,000 cells/well or 0 cells/well respectively. IFN-γ and LPS were added to the remaining cell suspension at final concentrations of 100 ng/ml and 50 ng/ml respectively, and 50 μL of the stimulated cells were added to all remaining wells on the 384-well compound plates. The plates, with lids, were then placed in a 37° C., 5% CO2 humidified incubator for 2 days.
Following incubation, the 384-well plates were removed from the incubator and allowed to equilibrate to room temperature for 30 minutes. For the cytotoxicity assay, CellTiter-Glo® was prepared according to the manufacturer's instructions, and 40 μL were added to each plate well. After a twenty minute incubation at room temperature, luminescence was read on an EnVision® Multilabel Reader (PerkinElmer Inc., Waltham, Mass.). For the mass spectrometry assay, 10 μL of supernatant from each well of the compound-treated plates were added to 40 μL of acetonitrile, containing 10 μM of an internal standard for normalization, in 384-well, polypropylene, V-bottom plates (Greiner Bio-One, Kremsmünster, Austria) to extract the organic analytes. Following centrifugation at 2000 rpm for 10 minutes, 10 μL from each well of the acetonitrile extraction plates were added to 90 μL of sterile, distilled H2O in 384-well, polypropylene, V-bottom plates for analysis of kynurenine and the internal standard on the RapidFire 300 (Agilent Technologies, Santa Clara, Calif.) and 4000 QTRAP MS (SCIEX, Framingham, Mass.). MS data were integrated using Agilent Technologies' RapidFire Integrator software, and data were normalized for analysis as a ratio of kynurenine to the internal standard.

Row | Structure (SMILES) | PBMC_TOX PXC50
1 | CC(C)CN(c1ncc([C@H](C)CC(=O)O)cc1Nc1ccc(C(F)(F)F)cn1)C1CCOCC1 [Example 52, (3R)-3-{6-[(2-methylpropyl)(oxan-4-yl)amino]-5-{[5-(trifluoromethyl)pyridin-2-yl]amino}pyridin-3-yl}butanoic acid] | <5.0
2 | CC(C)CN(c1ncc([C@H](C)CC(=O)O)cc1Nc1nc(C(C)C)ns1)C1CCOCC1 [Example 8] | <5.0
3 | CC(C)CN(c1ncc([C@H](C)CC(=O)O)cc1Nc1ccc(Cl)nn1)C1CCOCC1 [Example 60, (3R)-3-{5-[(6-chloropyridazin-3-yl)amino]-6-[(2-methylpropyl)(oxan-4-yl)amino]pyridin-3-yl}butanoic acid] | <5.0
4 | CC(C)CN(c1ncc([C@H](C)CC(=O)O)cc1Nc1nc(C2CC2)ns1)C1CCOCC1 [Example 41, (3R)-3-{5-[(3-cyclopropyl-1,2,4-thiadiazol-5-yl)amino]-6-[(2-methylpropyl)(oxan-4-yl)amino]pyridin-3-yl}butanoic acid] | <5.0
5 | CC(C)CN(CC(C)C)c1ncc([C@H](C)CC(=O)O)cc1Nc1nnc(C(F)(F)F)s1 [Example 51, (3R)-3-{6-[bis(2-methylpropyl)amino]-5-{[5-(trifluoromethyl)-1,3,4-thiadiazol-2-yl]amino}pyridin-3-yl}butanoic acid] | <5.0
6 | CC(C)CN(c1ncc([C@H](C)CC(=O)O)cc1Nc1nc(Cl)ns1)C1CC(F)(F)C1 [Example 81] | <5.0
7 | Cc1cc(NC(=O)Nc2cc([C@H](C)CC(=O)O)cnc2N(CC(C)C)C2CC3(C2)CN(C(=O)OC(C)(C)C)C3)on1 [Example 61, (3R)-3-[6-({2-[(tert-butoxy)carbonyl]-2-azaspiro[3.3]heptan-6-yl}(2-methylpropyl)amino)-5-{[(3-methyl-1,2-oxazol-5-yl)carbamoyl]amino}pyridin-3-yl]butanoic acid] | <5.0
8 | CC(C)CN(c1cnc([C@H](C)CC(=O)O)cc1Nc1ccc(Cl)cn1)C1CCOCC1 [Example 82, (3R)-3-{4-[(5-chloropyridin-2-yl)amino]-5-[(2-methylpropyl)(oxan-4-yl)amino]pyridin-2-yl}butanoic acid] | <5.0
9 | CO[C@H]1CC[C@@H](N(CC(C)C)c2ncc([C@H](C)CC(=O)O)cc2Nc2ccc(C#N)cn2)CC1 [Example 25, (R)-3-(5-((5-cyanopyridin-2-yl)amino)-6-(isobutyl((1s,4S)-4-methoxycyclohexyl)amino)pyridin-3-yl)butanoic acid] | <5.0
10 | CC(C)CN(c1ncc([C@H](C)CC(=O)O)cc1Nc1nc(C(F)(F)F)c[nH]1)C1CCOCC1 [Example 48, (3R)-3-{6-[(2-methylpropyl)(oxan-4-yl)amino]-5-{[4-(trifluoromethyl)-1H-imidazol-2-yl]amino}pyridin-3-yl}butanoic acid] | <5.0
11 | CC(C)CN(c1ncc([C@H](C)CC(=O)O)cc1Nc1ccc(Cl)cn1)C1CCC(F)(F)CC1 [Example 18, (R)-3-(5-((5-chloropyridin-2-yl)amino)-6-((4,4-difluorocyclohexyl) (isobutyl)amino)pyridin-3-yl)butanoic acid] | <5.0
12 | C[C@H](CC(=O)O)c1cnc(N(CC2CC2)C2CCOCC2)c(Nc2ccc(Cl)cn2)c1 [Example 9, (R)-3-(5-((5-chloropyridin-2-yl)amino)-6-((cyclopropylmethyl)(tetrahydro-2H-pyran-4-yl)amino)pyridin-3-yl)butanoic acid] | <5.0
13 | COCc1ccc(Nc2cc([C@H](C)CC(=O)O)cnc2N(CC(C)C)[C@H]2CC[C@@H](OC)CC2)nc1 [Example 58, (3R)-3-(5-{[5-(methoxymethyl)pyridin-2-yl]amino}-6-[(2-methylpropyl)[(1s,4s)-4-methoxycyclohexyl]amino]pyridin-3-yl)butanoic acid] | <5.0
14 | CC(C)CN(c1ncc([C@H](C)CC(=O)O)cc1Nc1ccc(Cl)cn1)C1CC(F)(F)C1 [Example 75, (3R)-3-{5-[(5-chloropyridin-2-yl)amino]-6-[(3,3-difluorocyclobutyl)(2-methylpropyl)amino]pyridin-3-yl}butanoic acid] | <5.0
15 | CC(C)CN(c1ncc([C@H](C)CC(=O)O)cc1Nc1ccc(C#N)nc1)C1CCOCC1 [Example 62, (3R)-3-{5-[(6-cyanopyridin-3-yl)amino]-6-[(2-methylpropyl)(oxan-4-yl)amino]pyridin-3-yl}butanoic acid] | <5.0
16 | CC(C)CN(c1ncc([C@H](C)CC(=O)O)cc1Nc1cnc(C#N)cn1)C1CCOCC1 [Example 67, (3R)-3-{5-[(5-cyanopyrazin-2-yl)amino]-6-[(2-methylpropyl)(oxan-4-yl)amino]pyridin-3-yl}butanoic acid] | <5.0
17 | CC(C)CN(c1ncc([C@H](C)CC(=O)O)cc1Nc1nc(C(F)(F)F)ns1)[C@H]1CC[C@H](O)CC1 [Example 28, (R)-3-(6-(((1r,4R)-4-hydroxycyclohexyl)(isobutyl)amino)-5-((3-(trifluoromethyl)-1,2,4-thiadiazol-5-yl)amino)pyridin-3-yl)butanoic acid] | <5.0
18 | CC(C)CN(c1ncc([C@H](C)CC(=O)O)cc1Nc1ccc(C#N)nn1)C1CCOCC1 [Example 74, (3R)-3-{5-[(6-cyanopyridazin-3-yl)amino]-6-[(2-methylpropyl)(oxan-4-yl)amino]pyridin-3-yl}butanoic acid] | <5.0
19 | CNC(=O)c1nnc(Nc2cc([C@H](C)CC(=O)O)cnc2N(CC(C)C)C2CCCCC2)s1 [Example 64, (3R)-3-{6-[cyclohexyl(2-methylpropyl)amino]-5-{[5-(methylcarbamoyl)-1,3,4-thiadiazol-2-yl]amino}pyridin-3-yl}butanoic acid] | <5.0
20 | COCc1ccc(Nc2cc(C(C)CC(=O)O)cnc2N(CC(C)C)C2CCC(OC)CC2)nc1 (stereo not drawn) [Example 47, (3RS)-3-(5-{[5-(methoxymethyl)pyridin-2-yl]amino}-6-[(2-methylpropyl)[(1rs&,4rs&)-4-methoxycyclohexyl]amino]pyridin-3-yl)butanoic acid] | <5.0
21 | CC(C)CN(c1ncc([C@H](C)CC(=O)O)cc1Nc1nnc(C2CC2)s1)C1CCOCC1 [Example 38, (3R)-3-{5-[(5-cyclopropyl-1,3,4-thiadiazol-2-yl)amino]-6-[(2-methylpropyl)(oxan-4-yl)amino]pyridin-3-yl}butanoic acid] | <5.0
22 | CO[C@H]1CC[C@@H](N(CC(C)C)c2ncc([C@H](C)CC(=O)O)cc2Nc2nc(Cl)ns2)CC1 [Example 21, (R)-3-(5-((3-chloro-1,2,4-thiadiazol-5-yl)amino)-6-(isobutyl((1s,4S)-4-methoxycyclohexyl)amino)pyridin-3-yl)butanoic acid] | <5.0
23 | CC(C)CN(c1ncc(C(C)CC(=O)O)cc1Nc1nc(C2CC2)ns1)C1CCOCC1 (centres unmarked) [Example 37, 3-{5-[(3-cyclopropyl-1,2,4-thiadiazol-5-yl)amino]-6-[(2-methylpropyl)(oxan-4-yl)amino]pyridin-3-yl}butanoic acid] | <5.0
24 | CC(C)CN(c1ncc([C@H](C)CC(=O)O)cc1Nc1nc(Cl)ns1)C1CCCCC1 [Example 12, (R)-3-(5-((3-chloro-1,2,4-thiadiazol-5-yl)amino)-6-(cyclohexyl(isobutyl)amino)pyridin-3-yl)butanoic acid] | <5.0
25 | COCc1nsc(Nc2cc([C@H](C)CC(=O)O)cnc2N(CC(C)C)C2CCOCC2)n1 [Example 56, (3R)-3-(5-{[3-(methoxymethyl)-1,2,4-thiadiazol-5-yl]amino}-6-[(2-methylpropyl)(oxan-4-yl)amino]pyridin-3-yl)butanoic acid] | <5.0
26 | CC(C)CN(c1ncc([C@H](C)CC(=O)NS(C)(=O)=O)cc1Nc1ccc(Cl)cn1)C1CCOCC1 [Example 79, (3R)-3-{5-[(5-chloropyridin-2-yl)amino]-6-[(2-methylpropyl)(oxan-4-yl)amino]pyridin-3-yl}-N-methanesulfonylbutanamide] | <5.0
